IC50 data for 6 compounds are collected here from patent US6821965B1, “Amidobenzamide derivatives which are useful as cytokine inhibitors” (AsterZeneca AB, priority 1998, dated 2004).

For test [1], the system named is TNFα production by human peripheral blood mononuclear cells. Put plainly: PBMC test: LPS-stimulated TNFα production. The note with it: approximate value. It counts as cell-based. The protocol:
The ability of compounds of this invention to inhibit TNFα production was assessed by using human peripheral blood mononuclear cells which synthesise and secrete TNFα when stimulated with lipopolysaccharide.
Peripheral blood mononuclear cells (PBMC) were isolated from heparinised (10 units/ml heparin) human blood by density centrifugation (Lymphoprep™; Nycomed). Mononuclear cells were resuspended in culture medium [RPMI 1640 medium (Gibco) supplemented with 50 units/ml penicillin, 50 μg/ml streptomycin, 2 mM glutamine and 1% heat-inactivated human AB serum (Sigma H-1513)]. Compounds were solubilised in DMSO at a concentration of 50 mM, diluted 1:100 in culture medium and subsequently serial dilutions were made in culture medium containing 1% DMSO. PBMCs (2.4×10^5 cells in 160 μl culture medium) were incubated with 20 μl of varying concentrations of test compound (triplicate cultures) or 20 μl culture medium containing 1% DMSO (control wells) for 30 minutes at 37° C. in a humidified (5% CO2/95% air) incubator (Falcon 3072; 96 well flat-bottom tissue culture plates). 20 μl lipopolysaccharide [LPS E. Coli 0111:B4 (Sigma L-4130), final concentration 10 μg/ml] solubilised in culture medium was added to appropriate wells. 20 μl culture medium was added to “medium alone” control wells. Six “LPS alone” and four “medium alone” controls were included on each 96 well plate. Varying concentrations of a known TNFα inhibitor were included in each test, i.e. an inhibitor of the PDE Type IV enzyme (for example see Semmler, J. Wachtel. H and Endres, S., Int. J. Immunopharmac. (1993), 15(3), 409-413) or an inhibitor of proTNFα convertase (for example, see McGeehan, G. M. el al. Nature (1994) 370, 558-561). Plates were incubated for 7 hours at 37° C. (humidified incubator) after which 100 μl of the supernatant was removed from each well and stored at −70° C. (96 well round-bottom plates; Corning 25850). TNFα levels were determined in each sample using a human TNFα ELISA (see WO92/10190 and Current Protocols in Molecular Biology, vol 2 by Frederick M. Ausbel et al., John Wiley and Sons Inc.). […]

The target in another test is T1, p38α (Homo sapiens, UniProt Q16539).
T1 construct: c-myc (N); 6His (N); made in house; host or cells: E. coli (PET vectors)
T1 sequence (Q16539 whole entry): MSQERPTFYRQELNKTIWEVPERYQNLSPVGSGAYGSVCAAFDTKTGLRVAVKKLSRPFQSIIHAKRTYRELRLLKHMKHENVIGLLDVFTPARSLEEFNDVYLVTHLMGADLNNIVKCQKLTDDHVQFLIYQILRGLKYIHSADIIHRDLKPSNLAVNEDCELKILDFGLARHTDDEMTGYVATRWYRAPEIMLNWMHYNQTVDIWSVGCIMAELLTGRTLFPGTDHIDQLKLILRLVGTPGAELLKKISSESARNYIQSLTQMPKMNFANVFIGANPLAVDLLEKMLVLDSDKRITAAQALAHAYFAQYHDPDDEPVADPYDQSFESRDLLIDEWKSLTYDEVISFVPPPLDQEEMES
Briefly: In vitro enzyme assay, p38α kinase. The following applies: approximate value; read-out: IC50 against p38α. It counts as biochemical. On the procedure: The ability of compounds of the invention to inhibit the enzyme p38 kinase was assessed. Activity of test compounds against each of the p38α and p38β isoforms of the enzyme was determined.
Human recombinant MKK6 (GenBank Accesion Number G1209672) was isolated from Image clone 45578 (Genomics 1996, 33, 151) and utilised to produce protein in the form of a GST fusion protein in a pGEX vector using analogous procedures to those disclosed by J. Han el al., Journal of Biological Chemistry, 1996, 271, 2886-2891. p38α (GenBank Accession Number G529039) and p38β (GenBank Accession Number G1469305) were isolated by PCR amplification of human lymphoblastoid cDNA (GenBank Accession Number GM1416) and human foetal brain cDNA [synthesised from mRNA (Clontech, catalogue no. 6525-1) using a Gibco superscript cDNA synthesis kit] respectively using oligonucleotides designed for the 5′ and 3′ ends of the human p38α and p38β genes using analogous procedures to those described by J. Han et al., Biochimica et Biophysica Acta, 1995, 1265, 224-227 and Y. Jiang et al., Journal of Biological Chemistry 1996, 271, 17920-17926.
Both p38 protein isoforms were expressed in e coli in PET vectors. Human recombinant p38α and p38β isoforms were produced as 5′ c-myc, 6His tagged proteins. Both MKK6 and the p38 proteins were purified using standard protocols: the GST MKK6 was purified using a glutathione sepharose column and the p38 proteins were purified using nickel chelate columns.
The p38 enzymes were activated prior to use by, incubation with MKK6 for 3 hours at 30° C. The unactivated coli-expressed MKK6 retained sufficient activity to fully activate both isoforms of p38. The activation incubate comprised p38α (10 μl of 10 mg/ml) or p38β (10 μl of 5 mg/ml) together with MKK6 (10 μl of 1 mg/ml), ‘Kinase buffer’ [100 μl; pH 7.4 buffer comprising Tris (50 mM), EGTA (0.1 mM), sodium orthovanadate (0.1 mM) and β-mercaptoethanol (0.1%)] and MgATP (30 μl of 50 mM Mg(OCOCH3)2 and 0.5 mM ATP). This produced enough activated p38 enzyme for 3 Microtiter plates.
Test compounds were solubilised in DMSO and 10 μl of a 1:10 diluted sample in ‘Kinase Buffer’ was added to a well in a Microtiter plate. For single dose testing, the compounds were tested at 10 μM. ‘Kinase Assay Mix’ [30 μl; comprising Myelin Basic Protein (Gibco BRL cat no. 1322B-θ10; 1 ml of a 3.33 mg/ml solution in water), activated p38 enzyme (50 μl) and ‘Kinase Buffer’ (2 ml)] was then added followed by ‘Labelled ATP’ [10 μl; comprising 50 μM ATP, 0.1 μCi^33P ATP (Amersham International cat. no. BF 1000) and 50 mM Mg(OCOCH3)21]. The plates were incubated at room temperature with gentle agitation. Plates containing p38α were incubated for 90 min and plates containing p38β were incubated for 45 min. Incubation was stopped by the addition of 50 μl of 20% trichloroacetic acid (TCA). The precipitated protein was phosphorylated by p38 kinase and test compounds were assessed for their ability to inhibit this phosphorylation. The plates were filtered using a Canberra Packard Unifilter and washed with 2% TCA, dried overnight and counted on a Top Count scintillation counter.
Test compounds were tested initially at a single dose and active compounds were retested to allow IC50 values to be determined.

For test [2], the system named is TNFα production in human whole blood. Briefly: Human Whole Blood (HWB) test: LPS-stimulated TNFα production. It counts as cell-based. The note with it: approximate value. On the procedure: The ability of the compounds of this invention to inhibit TNFα production was also assessed in a human whole blood assay. Human whole blood secretes TNFα when stimulated with LPS. This property of blood forms the basis of an assay which is used as a secondary test for compounds which profile as active in the PBMC test.
Heparinised (10 units/ml) human blood was obtained from volunteers. 160 μl whole blood were added to 96 well round-bottom plates (Corning 25850). Compounds were solubilised and serially diluted in RPMI 1640 medium (Gibco) supplemented with 50 units/ml penicillin, 50 μg/ml streptomycin and 2 mM glutamine, as detailed above. 20 μl of each test concentration was added to appropriate wells (triplicate cultures). 20 μl of RPMI 1640 medium supplemented with antibiotics and glutamine was added to control wells. Plates were incubated for 30 minutes at 37° C. (humidified incubator), prior to addition of 20 μl LPS (final concentration 10 μg/ml). RPMI 1640 medium was added to control wells. Six “LPS alone” and four “medium alone” controls were included on each plate. A known TNFαsynthesis/secretion inhibitor was included in each test. Plates were incubated for 6 hours at 37° C. (humidified incubator). Plates were centrifuged (2000 rpm for 10 minutes) and 100 μl plasma removed and stored at −70° C. (Corning 25850 plates). TNFα levels were measured by ELISA (see WO92/10190 and Current Protocols in Molecular Biology, vol 2 by Frederick M. Ausbel et al., John Wiley and Sons Inc.). The paired antibodies that were used in the ELIZA were obtained from R&D Systems (catalogue nos. MAB610 anti-human TNFα coating antibody, BAF210 biotinylated anti-human TNFα detect antibody).

pIC50: −log10 of the molar value.

Broadly, the pIC50 is the IC50 on a negative log10 scale, so that one unit is a factor of ten. Consider `CCCc1ccc(C(=O)Nc2cc(C(=O)Nc3cccc(N(C)C)c3)ccc2C)cc1` [Example 3, Compound No. 1, N-(3-dimethylaminophenyl)-4-methyl-3-(4-propylbenzamido)benzamide], for which the pIC50 in test [1] was approximately 5.22; on p38α, approximately 6.52.
For `COc1ccc(C(=O)Nc2cc(C(=O)NCCC3CCCCC3)ccc2C)cc1OC` [Example 11, N-(2-cyclohexylethyl)-3-(3,4-dimethoxybenzamido)-4-methylbenzamide], the results for the pIC50 (in test [1]; at p38α) were approximately 5.10 and approximately 6.00, respectively.
Turning to `Cc1ccc(C(=O)Nc2cccc(N(C)C)c2)cc1NC(=O)c1ccc2ncccc2c1` [Example 12, N-(3-dimethylaminophenyl)-4-methyl-3-(6-quinolylcarbonylamino)benzamide], the results for the pIC50 (in test [1]; at p38α) were approximately 4.66 and approximately 6.15, respectively.
On to `Cc1ccc(C(=O)Nc2cccc(N3CCOCC3)c2)cc1NC(=O)c1cccc(OC2CCNCC2)c1` [Example 20, 4-methyl-N-(3-morpholinophenyl)-3-(3-piperidin-4-yloxybenzamido)benzamide], for which the pIC50 in test [2] is approximately 5.70; at p38α it was approximately 7.30.
The matching figures for `Cc1ccc(C(=O)Nc2cccc(N3CCOCC3)c2)cc1NC(=O)c1cccc(CN2CCN(C)CC2)c1` [Example 30, 4-methyl-3-[3-(4-methylpiperazin-1-ylmethyl)benzamido]-N-(3-morpholinophenyl)benzamide]: approximately 5.30 and approximately 7.30.
Turning to `CCN(CC)Cc1ccc(C(=O)Nc2cc(C(=O)Nc3cccc(N4CCOCC4)c3)ccc2C)cc1` [Example 31(4), 4-methyl-3-(4-diethylaminomethylbenzamido)-N-(3-morpholinophenyl)benzamide], the pIC50 in test [2] is approximately 4.82; at p38α it was approximately 6.52.
